Assay results: US8691757B2 (Bristol-Myers Squibb Company, priority 2011, dated 2014)

Columns and labels:
[1] = test system: HCV genotype 1a (H77 strain) replicon in HUH-7 cells; experiment: HCV replicon luciferase reporter assay, genotype 1a; format: cell-based; settings: Hepatitis C virus, 72 h, HCV genotype 1a replicon, 3 days incubation, Renilla luciferase, numeric values
Outline: (§1)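 Stable HUH-7 replicon lines (1b Con1 with S1179I; 1a H77 with P1496L and S2204I) carrying Renilla luciferase were incubated 3 days at 37 °C with compound in 4% FCS, 0.5% DMSO. Luminescence was read after 2 h with 7.5 μM EnduRen, EC50 from four-parameter logistic fit; CC50 came from multiplexed Cell Titer-Blue (8 h).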

[2] = test system: HCV genotype 1b (Con1) replicon in HUH-7 cells; experiment: HCV replicon luciferase reporter assay, genotype 1b; format: cell-based; settings: Hepatitis C virus, 72 h, HCV genotype 1b replicon, 3 days incubation, Renilla luciferase, numeric values
Outline: as §1

Structure (SMILES): COc1cnc(O[C@@H]2C[C@H]3C(=O)N[C@]4(C(=O)NS(=O)(=O)C5(C)CC5)C[C@H]4/C=C\[C@H](C)CCC[C@@H](C)[C@H](NC(=O)OC(C)(C)C(F)(F)F)C(=O)N3C2)c2ccccc12 [Compound 35, 1,1,1-trifluoro-2-methylpropan-2-yl (2R,6S,7R,11R,13aS,14aR,16aS,Z)-2-(4-methoxyisoquinolin-1-yloxy)-7,11-dimethyl-14a-(1-methylcyclopropylsulfonylcarbamoyl)-5,16-dioxo-1,2,3,5,6,7,8,9,10,11,13a,14,14a,15,16,16a-hexadecahydrocyclopropa[e]pyrrolo[1,2-a][1,4]diazacyclopentadecin-6-ylcarbamate]
- EC50 [1]: 1.96 nM
- EC50 [2]: 0.51 nM
